Measured values published in paper PMC11649397, “The study of halogen effect on the reactivity of the serine-targeting covalent warheads” (Frontiers in Chemistry, 2024).
Several values for one entry are separate records, joined by “and”; a condition that tells them apart may be missing. Identical values can stand only once. Entries after “also recorded” stand apart in the source; their conditions may differ. Like-named read-outs stand apart in the source and are kept apart here.

What was measured:
hCES1A = target: T1, hCES1A (Homo sapiens, UniProt P23141); experiment: Inhibition assay on hCES1A (bioluminogenic substrate NLMe); type: biochemical; conditions: for selective inhibitory activity on hCES1A: 10 μM, selectivity screening; for IC50: mean ± SD, n = 3; for anti-hCES1A effect in screening of the covalent fragment library: high-throughput screening, Figure 1
T1 sequence (P23141 18-567): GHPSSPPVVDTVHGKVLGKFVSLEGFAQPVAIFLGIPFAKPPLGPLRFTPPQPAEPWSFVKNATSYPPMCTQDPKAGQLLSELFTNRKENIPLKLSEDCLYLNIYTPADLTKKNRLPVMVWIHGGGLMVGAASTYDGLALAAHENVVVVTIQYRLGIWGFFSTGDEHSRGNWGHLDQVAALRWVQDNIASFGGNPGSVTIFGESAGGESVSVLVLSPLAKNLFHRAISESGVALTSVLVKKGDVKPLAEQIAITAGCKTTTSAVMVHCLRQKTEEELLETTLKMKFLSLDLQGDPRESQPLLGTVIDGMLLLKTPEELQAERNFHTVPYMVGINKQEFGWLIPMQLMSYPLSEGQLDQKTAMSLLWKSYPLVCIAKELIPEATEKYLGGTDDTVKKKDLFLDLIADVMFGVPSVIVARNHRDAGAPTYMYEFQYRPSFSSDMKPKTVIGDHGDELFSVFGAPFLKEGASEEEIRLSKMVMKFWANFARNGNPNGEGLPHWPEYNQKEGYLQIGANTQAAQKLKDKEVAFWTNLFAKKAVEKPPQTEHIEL
Procedure: In this study, a known bioluminogenic probe substrate NLMe was used for human carboxylesterase 1 (hCES1A) inhibition assays. ([Wang et al., 2020]). In brief, the incubation mixture (0.1 mL) consisted of 0.1 M buffer PBS (PH 6.5), hCES1A (0.1 μg/mL, final concentration) and each test compound. […] After 20 min incubation, equal volume of LDR was added to stop reaction. The luminescence signals were monitored in the microplate reader (SpectraMax iD3Molecular Devices, Austria). […]
(§1) The household library of covalent fragments including D and F was from Organic Chemistry […]
(§2) Fig. S1. Partial fragment molecules of a household library targeting to serine. […]
Inhibition assay on hCES1A
In this study, a known bioluminogenic probe substrate NLMe was used for human carboxylesterase 1 (hCES1A) inhibition assays. 2 In brief, the incubation mixture (0.1 mL) consisted of 0.1 M buffer PBS (PH 6.5), hCES1A (0.1 μg/mL, final concentration) and each test compound. […]
After 20 min incubation, equal volume of LDR was added to stop reaction.

hCES2A = target: T2, hCES2A (Homo sapiens, UniProt O00748); experiment: Inhibition assay on hCES2A (fluorescent substrate FD); type: biochemical; conditions: for selective inhibitory activity on hCES2A: 10 μM, selectivity screening; for IC50: mean ± SD, n = 3
T2 sequence (O00748 27-559): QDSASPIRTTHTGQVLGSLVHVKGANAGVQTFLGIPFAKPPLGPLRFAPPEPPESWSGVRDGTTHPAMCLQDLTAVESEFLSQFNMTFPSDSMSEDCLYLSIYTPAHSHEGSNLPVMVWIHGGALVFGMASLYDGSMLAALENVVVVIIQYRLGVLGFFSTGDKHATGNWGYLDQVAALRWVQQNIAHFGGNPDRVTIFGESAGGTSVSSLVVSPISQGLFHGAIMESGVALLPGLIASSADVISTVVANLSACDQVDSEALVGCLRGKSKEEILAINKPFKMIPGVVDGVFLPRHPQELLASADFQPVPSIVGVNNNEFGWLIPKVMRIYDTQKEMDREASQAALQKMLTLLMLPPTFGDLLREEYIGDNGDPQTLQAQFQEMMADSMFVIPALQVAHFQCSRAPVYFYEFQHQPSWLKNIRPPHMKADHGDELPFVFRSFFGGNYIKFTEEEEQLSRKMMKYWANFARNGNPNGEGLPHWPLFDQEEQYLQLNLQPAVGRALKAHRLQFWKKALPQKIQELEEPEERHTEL
Procedure: 1. Detailed experimental, materials, and methods
as §1, §2
Inhibition assay on hCES2A
Human carboxylesterase 2 (hCES2A) inhibition assays were conducted using FD, a known fluorescent substrate. 3 Briefly, hCES2A (0.4 μg/mL, final concentration) was preincubated with analytes/DMSO (as a control group) in PBS (pH 7.4) at 37 °C for 3 min. This was followed by adding the substrate FD (4 μM, final concentration) in the incubation mixture and allowing it to react for 30 min. The fluorescent signals (excitation/emission, 480 nm/525 nm) were continuously recorded by a microplate reader (SpectraMax iD3Molecular Devices, Austria). […]

Compound	selective inhibitory activity on hCES1A (hCES1A)	IC50 (hCES1A; 3 min incubation, read-out: hCES1A IC50 3 min) [nM]	time-dependent inhibition against hCES1A (hCES1A; 3 min vs 33 min incubation)	IC50 (hCES1A; 33 min incubation, read-out: hCES1A IC50 33 min)	anti-hCES1A effect in screening of the covalent fragment library (hCES1A)	hCES1A IC50 Fold Increase (hCES1A; ratio of IC50 at 3 min to IC50 at 33 min)	selective inhibitory activity on hCES2A (hCES2A)	IC50 (hCES2A; 3 min incubation, read-out: hCES2A IC50 3 min) [nM]	time-dependent inhibition against hCES2A (hCES2A; 3 min vs 33 min incubation)	IC50 (hCES2A; 33 min incubation, read-out: hCES2A IC50 33 min) [nM]	difference between IC50 values of hCES1A and hCES2A (hCES1A; hCES1A vs hCES2A)
O=C(c1ccccc1)C(F)(F)F [F, 2,2,2-trifluoroacetophenone]	decent selective inhibitory activities	24.1 ± 1	weak time-dependent inhibition	11 nM and 11.1 nM	potent anti-hCES1A effects; also recorded: strong and selective inhibition against hCES1A	2 and 2.2	decent selective inhibitory activities	160 ± 18.4	no significant time-dependent inhibition	336 ± 37.2	
O=S(=O)(F)c1ccc(Br)cc1 [D, 4-bromobenzenesulfonyl fluoride]	decent selective inhibitory activities				potent anti-hCES1A effects; also recorded: strong and selective inhibition against hCES1A		decent selective inhibitory activities				no statistically significant difference
